# Test system: Na+-dependent Cl-/HCO3- exchanger (NCBE)
# Experiment: Inhibition of the Na+-dependent Cl-/HCO3- exchanger (NCBE) in human endothelial cells (FLIPR, BCECF pHi recovery)
# Assay type: cell-based
# Conditions: inhibitor concentration of 10 μM; human endothelial cells (ECV-304); 50 μM HOE 642 present
# Method: Inhibition of the Na^+ -dependent Cl^- /HCO3^- exchanger (NCBE) in human endothelial cells
# Human endothelial cells (ECV-304) were detached from culture flasks with the aid of trypsin/EDTA buffer (0.05/0.02% in phosphate buffer) and, after centrifugation (100 g, 5 min), taken up in a buffered salt solution (mmol/l: 115 NaCl, 20 NH4 Cl, 5 KCl, 1 CaCl2, 1 MgSO4, 20 N-(2-hydroxyethyl)-piperazine-N'-2-ethanesulfonic acid (HEPES), 5 glucose and 1 g/l of bovine serumalbumin; pH 7.4). This cell suspension was incubated at 37° C. for 20 min with 5 μM BCECF acetoxymethyl ester. The cells were then washed and resuspended in a sodium- and bicarbonate-free buffer solution (mmol/l: 5 HEPES, 133.8 choline chloride, 4.7 KCl, 1.25 MgCl2, 0.97 K2 HPO4, 0.23 KH2 PO4, 5 glucose; pH 7.4).
# The subsequent fluorescence measurement in the FLIPR (Fluorescent Imaging Plate Reader), 100 μl of this cell suspension in each case containing 20000 cells were added by pipette per well of a 96-well microtiter plate and this microtiter plate was centrifuged (100 g, 5 min).
# In the FLIPR, 100 μl of buffer solution in each case were then removed from a further prepared microtiter plate and added by pipette to each of the 96 wells of the measuring plate. In this case, for a 100% control, i.e. a recovery of the intracellular pH (pHi) by means of the NCBE, a bicarbonate- and sodium-containing buffer solution (mmol/l: 5 HEPES, 93.8 NaCl, 40 NaHCO3, 4.7 KCl, 1.25 CaCl2, 1.25 MgCl2, 0.97 Na2 HPO4, 0.23 NaH2 PO4, 5 glucose; pH 7.4) which contained 50 μM HOE 642 was used. For a 0% control, i.e. no pHi recovery at all, a bicarbonate-free, sodium-containing buffer solution (mmol/l: 5 HEPES, 133.8 NaCl, 4.7 KCl, 1.25 CaCl2, 1.25 MgCl2, 0.97 Na2 HPO4, 0.23 NaH2 PO4, 5 glucose; pH 7.4) to which 50 μM HOE 642 were also added was employed. The compounds of the formula (I) according to the invention were added in various concentrations of the sodium- and bicarbonate-containing solution.
# After addition of the buffer solutions to the dye-loaded acidified cells situated in the measuring plate,the increase in the fluorescence intensity which corresponded to an increase in the pHi was determined in each well of the microtiter plate. The kinetics were in this case recorded at 35° C. over a period of 2 minutes.
# The increase in the fluorescence intensities for different concentrations of the compounds according to the invention was related to the two controls and from this the inhibitory action of the substances was determined.
row,SMILES,Residual activity of the NCBE [%]
1,"N#CNS(=O)(=O)c1ccccc1-c1ccc(C=C2CCCCC2)cc1 [Example 1, 4'-Cyclohexylidenemethylbiphenyl-2-sulfonylcyanamide]",68.4
2,"N#CNS(=O)(=O)c1ccccc1-c1ccc(CC2CCCCC2)cc1 [Example 2, 4'-Cyclohexylmethylbiphenyl-2-sulfonylcyanamide]",51.6
3,"N#CNS(=O)(=O)c1ccccc1-c1ccc(C=C2CCCC2)cc1 [Example 3, 4'-Cyclopentylidenemethylbiphenyl-2-sulfonylcyanamide]",29.4
4,"N#CNS(=O)(=O)c1ccccc1-c1ccc(C=C2CCCCCC2)cc1 [Example 4, 4'-Cycloheptylidenemethylbiphenyl-2-sulfonylcyanamide]",30.5
5,"N#CNS(=O)(=O)c1ccccc1-c1ccc(/C=C\c2ccccc2)cc1 [Example 5, cis-4'-Styrylbiphenyl-2-sulfonylcyanamide]",21.2
6,"N#CNS(=O)(=O)c1ccccc1-c1ccc(/C=C/c2ccccc2)cc1 [Example 6, trans-4'-Styrylbiphenyl-2-sulfonylcyanamide]",19.3
7,"N#CNS(=O)(=O)c1ccccc1-c1ccc(CCc2ccccc2)cc1 [Example 7, 4'-Phenethylbiphenyl-2-sulfonylcyanamide]",64.2
8,"N#CNS(=O)(=O)c1ccccc1-c1ccc(/C=C\C2CCCCC2)cc1 [Example 8, cis-4'-(2-Cyclohexylvinyl)biphenyl-2-sulfonylcyanamide]",13.4
9,"N#CNS(=O)(=O)c1ccccc1-c1ccc(/C=C/C2CCCCC2)cc1 [Example 9, trans-4'-(2-Cyclohexylvinyl)biphenyl-2-sulfonylcyanamide]",12.8
10,"N#CNS(=O)(=O)c1ccccc1-c1ccc(CCC2CCCCC2)cc1 [Example 10, 4'-(2-Cyclohexylethyl)biphenyl-2-sulfonylcyanamide]",24.3

# Source: US5968978A, “Biphenylsulfonylcyanamides, process for their preparation, and their use as medicament” (Hoechst Marion Roussel Deutschland, priority 1997, dated 1999)
